Test results reported in EP1101492A1, “NOVEL REMEDIES FOR ALLERGIC DISEASES” (FUJI YAKUHIN KOGYO KABUSHIKI KAISHA, priority 1998, dated 2000).

Assays:
[1] = system: mouse experimental atopic dermatitis models; assay: Auricle edema in experimental atopic dermatitis model (anti-DNP IgE sensitization, DNFB elicitation); format: in vivo, Balb/c mice; details: for % Inhibition IPR: auricle edema 1 hour post-elicitation; for % Inhibition IPR / % Inhibition LPR / % Inhibition vLPR: test compounds 60 mg/kg s.c., prednisolone 10 mg/kg i.p.; for % Inhibition IPR / % Inhibition LPR: once a day, 24 & 2 hours prior to DNFB-elicitation, vs untreated group; for % Inhibition LPR: auricle edema Day 1 post-elicitation; for % Inhibition vLPR: auricle edema Day 7 post-elicitation
Description: Intravenous injection of an anti-2,4-dinitrophenol (DNP) antibody (anti-DNP Ab, monoclonal IgE Ab; its antibody titer was 1 : 512 to 1 : 1024 by a rat heterologous passive cutaneous anaphylaxis reaction using a Wister rat) into a tail vein of female Balb/c mice (7-week old, body weight: 17 to 20 g, purchased from JAPAN SLC, Inc.) at a dose of […] per animal raised passive sensitization. Twenty four hours post-sensitization, 0.1% 2,4-dinitrofluorobenzene (DNFB; Nacalai Tesque, Inc.) in ethanol was painted onto both sides of a pair of mouse auricles at a dose of 10µL per each side for elicitation.
Fresh unsensitized mice were painted with 0.1% DNFB in ethanol onto their ear in the same manner as aforementioned and served as a control group. Not only immediately prior to elicitation but also 1 hour, 5 hours, daily between Days 1 and 14, and on Day 16 post-elicitation, ear thickness was measured using a dial thickness gauge (Peacock Co.). Each degree of auricle edemas was calculated: Auricular Edema (µm)=(Ear Thickness Post-Elicitation, µm) - (Ear Thickness immediately prior to Elicitation, µm) [formula]
Balb/c mice were passively sensitized with anti-DNP IgE Ab in the same manner as in Example 1. Twenty four hours later, 0.1% DNFB in ethanol was painted onto both sides of a pair of mouse auricles at a dose of 10 µL per each side for elicitation.
Immediately prior to elicitation, 1 hour and on Day 1 post-elicitation, auricle thickness was measured in the same manner as in Example 1. Each therapeutic efficacy is recorded as a percent inhibition wherein the "auricle edema (untreated group)" is used as a control. Auricle Edema Inhibition (%) = [ 1 -(Auricle Edema (Treated Group))/(Auricle Edema (Untreated Group))] × 100 (%) [formula]
Immediately prior to elicitation, and on Day 7 post-elicitation, auricle thickness was similarly measured. Each therapeutic efficacy is recorded as a percent inhibition wherein the auricle edema in the untreated group is used as a control.
Immediately prior to elicitation, and on Day 7 post-elicitation, auricle thickness was similarly measured. Each therapeutic efficacy is recorded as a percent inhibition wherein the auricle edema (untreated group) is used as a control.
Immediately prior to elicitation, at 1 and 4 hours and on Days 1, 3 and 7 post-elicitation, auricle thickness was similarly measured. From each auricle edema (µm) based on the auricle thickness immediately prior to elicitation, especially a prophylactically therapeutic efficacy of the test compound was evaluated.
Immediately prior to elicitation, at 0.5, 1 and 4 hours and on Days 1, 3 and 7 post-elicitation, auricle thickness was similarly measured. Each amount of auricle edemas was calculated (average± standard deviation).

[2] = Body weight gain in sensitized mice; format: in vivo; details: test compound 50 µg/ear/dose, prednisolone 5 µg/ear/dose, in ethanol painted twice a day, Days 1, 4 and 7, vs solvent control (ethanol)
Description: Experimental atopic dermatitis model mice sensitized in the same manner as in Example 1 were examined for influence on body weight gains.
Each mouse was measured for its body weight not only immediately before the start in painting but also on Days 1, 4 and 7 after the start in painting. Each gain in body weight was calculated and considered to indicate an effect on body weight changes affected by said treatments.

Body weight gain in mice = details: test compounds 60 mg/kg s.c., prednisolone 10 mg/kg i.p., once a day for 6 days (Days 0-5), average ± standard deviation; for Body Weight Gain, Observation Day 5: non-administered 0.50± 0.23; for Body Weight Gain, Observation Day 7: non-administered 0.80± 0.48; for Body Weight Gain, Observation Day 10: non-administered 1.07± 0.58
Description: Accordingly, for assessing the side-effect each of the following test compounds an action on body weight gains was examined.
Next the mice were measured for their body weight. Each body weight gain was calculated on Days 5, 7 and 10 post-administration based on the body weight just prior to administration.

[3] = system: guinea pig experimental bronchial asthma models; assay: Experimental bronchial asthma model (ovalbumin inhalation): airway resistance and asthmatic death; details: prednisolone 10 mg/kg orally;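 note: female Std:Hartley guinea pigs sensitized by inhaling nebulized ovalbumin once daily for 8 consecutive days, 8 to 11 animals per group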
Description: Guinea pigs (female, Std:Hartley, 3 weeks old, 200 to 250 g) were individually housed in a plastic chamber (width, 200 mm; depth, 300 mm; height, 167 mm). Aqueous ovalbumin (10 mg/mL) was administered to the guinea pigs once a day for sensitization by 10 min. inhalation with a nebulizer (5B, Nippon Shoji K.K.: flow rate, 6 L/min.) at a dose of 10 mg/mL during 8 cosecutive days. On Day 7 after the final sensitization, the guinea pigs were housed in a plastic chamber and inhaled using a nebulizer with a solution of ovalbumin (10 mg/mL) in physiological saline for 1 min. for elicitation (Matsumoto, T., et al., The Journal of Pharmacology and Experimental Therapeutics, 269: 1236-1244, 1994). The number of animals employed in the experiment was set to the extent there are at least 6 as individuals escaping asthmatic death. A solution of a test compound (Compound No. 130, 15 mg/kg) in water for injection was administered subcutaneously twice, i.e., 24 hours and 2 hours prior to elicitation. Similarly, the solvent alone was also administered to a negative control group. A suspension of prednisolone (10 mg/kg) in 0.5% aqueous methyl cellulose was administered orally twice, i.e., 24 hours and 2 hours prior to elicitation. Similarly, the solvent alone was also administered to another control group.
The evaluation for efficacies was conducted in terms of airway resistance. For this purpose, an apparatus dedicated to the measurement of airway resistance (K.K. Medical Agent) was employed. Measurement includes setting a guinea pig in a test chamber under a not-anesthetized condition, applying sinusoidal pressure waves of 30 Hz components to a part below the neck of the animal from the back side of the chamber, measuring respiratory waves of 30 Hz components leaking through the mouth (volume of 30 Hz air flow passing through the respiratory tract) in front of the neck, and calculating airway resistance mechanically. Measurement was carried out immediately prior to the first drug treatment (24 hours before elicitation), just prior to elicitation, 10 minutes, 1, 2, 4, 6, and 8 hours post-elicitation.
It was visually observed by a person carrying out said test in terms, of the appearance of cyanosis or suffocative death (asthmatic death) due to respiratory obstruction.
Guinea pigs were sensitized with ovalbumin and asthma was induced on Day 7 after final sensitization in the same manner as in Example 20. The number of animals employed in the experiment was set to the extent there are at least 6 as individuals escaping asthmatic death (8 to 11 animals/group). In the same manner as in Example 20, the animals were measured for airway resistance mechanically and each percent change (%) in airway resistance was calculated (each value just prior to elicitation was set as 100%). Each percent amelioration in airway resistance was calculated from the percent changes in airway resistance according to the following formula: Amelioration in Airway Resistance (%) = 1 -[((Percent Change in Airway Resistance after Drug-Administration) - (Value just prior to Challenge (100)))/((Percent Change in Airway Resistance after Solvent-Administration) - (Value just prior to Challenge (100)))]× 100 [formula]

IgE = assay: Serum IgE level in sensitized and DNFB-elicited mice (ELISA); format: in vivo, Balb/c mice; details: 100 µg/ear in ethanol painted twice a day, 1 hour pre-elicitation, 0.25, 4, 5 and 6 days post-elicitation; serum 7 days post-elicitation; average ± standard deviation; untreated 34.55 ± 8.89, healthy 11.79 ± 2.35
Text: Ethanol alone was also painted onto both sides of a mouse left auricle. […] Blood was also drawn from unsensitized healthy mice and untreated mice and treated to give serum samples. Seven days post-elicitation, blood samples were drawn by cardiac puncture using a syringe treated with heparin, and then centrifuged to give serum samples.
A dilution of polyclonal goat anti-mouse IgE antibody (Bethyl Laboratories, Inc.; 500-fold dilution) in 0.1 M sodium carbonate-sodium bicarbonate buffer (pH 9.6) was added to each well of a 96-well microtest plate (MaxiSorp, Nunc, Inc.) at a rate of 100 µL/well and the resultant microtest plates were allowed to stand at about 4°C overnight in a refrigerator. Each well was rinsed 3 times with phosphate buffer (pH 7.4) containing 0.05% Tween 20. Next, 0.1 M sodium carbonate-sodium bicarbonate buffer (pH 9.6) containing 1 % bovine serum albumin was added to each well at a rate of 100 µL/well. The resultant microtest plates were allowed to stand at room temperature for 1 hour and washed 3 times. Thereafter, 2-fold serial dilutions of mouse serum samples were poured into each well of microtest plates at 100 µL/well, which was subjected to an antigen-antibody reaction at 4°C for 2 hours. […] The resultant enzymatic reaction products were measured at 405 nm.

[4] = daily from 3 to 6 days after DNFB-elicitation
[5] = daily from 1 day prior to through 5 days after DNFB-elicitation
[6] = asthmatic death due to cyanosis within several minutes after elicitation, Compound No. 130 15 mg/kg s.c., 24 and 2 hours prior to elicitation
[7] = test compounds 15 mg/kg s.c. (Compound No. 114: 30 mg/kg), 24 and 2 hours prior to elicitation, vs solvent control

Compound	% Inhibition IPR [1]	% Inhibition LPR [1]	% Inhibition vLPR [1, 4]	% Inhibition vLPR [1, 5]	gain in body weight (FIG. 10) [2]	Body Weight Gain, Observation Day 5 (Body weight gain in mice)	Body Weight Gain, Observation Day 7 (Body weight gain in mice)	Body Weight Gain, Observation Day 10 (Body weight gain in mice)	% Mortality [3, 6]	(Dead Animals)/(Tested Animals) [3, 6]	% Survival ([3]; asthmatic death within several minutes after elicitation, test compounds 15 mg/kg s.c. (Compound No. 114: 30 mg/kg), water for injection 54.5, 0.5% methyl cellulose 66.7)	% Amelioration in Airway Resistance, 1 Hour after Elicitation [3, 7]	% Amelioration in Airway Resistance, 6 Hours after Elicitation [3, 7]	% Amelioration in Airway Resistance, Immediately after Elicitation [3, 7]	inhibitory efficacy on IgE-mediated auricle edema (FIG. 8) ([1]; 150 mg/kg orally once a day, compared to solvent control group, IPR 1 hour, LPR 1 day, vLPR 7 days)	Serum IgE Level (IgE)
C[C@]12C=CC(=O)C=C1CC[C@@H]1[C@@H]2[C@@H](O)C[C@@]2(C)[C@H]1CC[C@]2(O)C(=O)CO [Prednisolone, reference compound]	36.8%	29.9%	24.8%	24.8%	below that in the solvent control group	0.00± 0.26	0.03± 0.57	0.97± 0.47	22.2%	2/9	75.0%	23.6%	14.8%	11.5%	–	–
CC(=N)NCCCC[C@H](NC(=O)[C@H](CC(C)C)C(CCCc1ccccc1)C(=O)NO)C(=O)NCCN(C)C.CC(=O)O.CC(=O)O (mixture of isomers) [Compound No. 44, N^a-[4-(Hydroxyamino)-2(R)-isobutyl-3(RS)-(3-phenylpropyl)succinyl]-N^e-acetimidoyl-L-lysine N-(2-N',N'-dimethylaminoethyl)amide · 2 acetate]	43.9%	43.6%	65.6%	22.0%	–	0.80± 0.30	1.08± 0.57	1.23± 0.56	–	–	–	–	–	–	not only an inhibitory activity on the development of edemas in both IPR and LPR but also a remarkably strong inhibitory activity in vLPR	26.70 ± 10.88 ng/mL
